# Data published in paper PMC9189214 (Poultry Science, 2022).
# Tests used:
# [1] = Cell viability used to select the allicin concentration; type: cell-based; settings: dog, MDCK-chAbcb1 or MDCK-chAbcg2 cells
# [2] = Pharmacokinetic analyses of sulfadiazine and florfenicol in broilers; type: in vivo; settings: florfenicol 20 mg/kg oral, 4-wk broilers
# chicken BCRP = assay: Bidirectional transport experiment in MDCK-chAbcg2 cells; type: in vitro ADME; settings: net efflux ratio (NER), florfenicol 20 μM, without allicin
Compound,viability at 5 μM [1],CLz ([2]; Allicin (32 mg/kg) for 4 wk),Vz ([2]; Allicin (32 mg/kg) for 4 wk),CLz ([2]; Control (no allicin)),Vz ([2]; Control (no allicin)),efflux ratio at 20 μM (chicken BCRP)
"C=CCS[S+]([O-])CC=C (stereo not drawn) [allicin, Allicin]",> 90%,–,–,–,–,–
CS(=O)(=O)c1ccc([C@@H](O)[C@@H](CF)NC(=O)C(Cl)Cl)cc1 [florfenicol],–,18.8 ± 8 mL/min/kg,7.61 ± 2.89 L/kg,25.2 ± 8.17 mL/min/kg,8.57 ± 3.90 L/kg,> 2
